Experimental data as given in publication PMC10587169, “Tuning aminopolycarboxylate chelators for efficient complexation of trivalent actinides” (Scientific Reports, 2023).

Assays:
[1] = Potentiometric complexometric titration; type: binding; conditions: for logβ101 (ML), Nd / logβ111 (MHL), Nd / logK111, Dy / logK111, Eu / logK111, Ho / logK111, La / logK111, Lu / logK111, Nd / logK111, Tb / logβ101 (ML), Dy / logβ101 (ML), Eu / logβ101 (ML), Ho / logβ101 (ML), La / logβ101 (ML), Lu / logβ101 (ML), Tb / logβ111 (MHL), Dy / logβ111 (MHL), Eu / logβ111 (MHL), Ho / logβ111 (MHL), La / logβ111 (MHL), Lu / logβ111 (MHL), Tb: potentiometry, I = 2.0 M (Na+/H+)ClO4, T = 20.0 °C; for logK111, Dy / logK111, Eu / logK111, Ho / logK111, La / logK111, Lu / logK111, Nd / logK111, Tb / logβ101 (ML), Dy / logβ101 (ML), Eu / logβ101 (ML), Ho / logβ101 (ML), La / logβ101 (ML), Lu / logβ101 (ML), Tb / logβ111 (MHL), Dy / logβ111 (MHL), Eu / logβ111 (MHL), Ho / logβ111 (MHL), La / logβ111 (MHL), Lu / logβ111 (MHL), Tb: ±3σ
Experimental: All potentiometric titrations were run using a Mettler Toledo T90 autotitrator equipped with an Orion Ross Semi-micro glass electrode with the junction stabilization solution changed to 5.0 M NaCl to prevent precipitation with perchlorate media. All titrations were performed under a hydrated nitrogen atmosphere. The forward titration measurements (acidic titrand, basic titrant) of H4octapa in nitrate electrolyte medium were performed as described previously due to the limited solubility of this ligand in a 2 M (Na^+/H^+)ClO4 medium. Acid dissociation constants of H4octapa in perchlorate electrolyte medium were also determined by titrating in reverse (basic titrand, acidic titrant) to alleviate the solubility concerns. Titrations of H4pypa-peg were performed in reduced-volume glass titration cups (10 mL nominal) due to the limited supply of this ligand. All potentiometric titrations were run in triplicate. The choice of using p[H^+] was explained in Heathman et al.[15], and the calibration of the p[H^+] scale utilized Gran analysis through titration of a strong acid with the base used in the potentiometric titrations[29]–[31]. Potentiometric titration data was modeled and analyzed using Hyperquad2013 to determine acid dissociation and metal complexation stability constants[32],[33].
The coordination of La^3+, Nd^3+, Eu^3+, Tb^3+, Dy^3+, Ho^3+, and Lu^3+ with H4octapa and H4pypa-peg was studied. Figures 4A, B show the potentiometric curves collected when Nd^3+ was titrated with H4octapa and H4pypa-peg, respectively. Both p[H^+] curves show the characteristic buffering region due to deprotonation of metal–ligand complexes when titrated with base. The experimental p[H^+] trend is best represented when considering the presence of MHL(aq) and ML^– complexes as generalized by Eqs. (4) and (5). The progressive formation of the metal complexes throughout the titration is illustrated by species distribution curves, also shown in Figs. 4A, B. The complex formation equilibria are described by the conditional stability constants, β101 and β111, listed in Table 3.

[2] = Spectrophotometric titration; type: binding
From the text: Changes in the optical absorption characteristics of Nd^3+ were monitored using a Cary 6000i UV/Vis–NIR Spectrometer (Agilent) using 1 cm semimicro quartz cuvettes (Starna) in double-beam mode, where the ^4I9/2 → ^4G5/2, ^2G7/2 transitions[34] were monitored between 560 and 605 nm with a 0.075 nm interval and 1.0 nm spectral bandwidth. Changes in the optical absorption characteristics of ^243Am^3+ and ^248Cm^3+ were monitored using a Flame-S-VIS–NIR-ES spectrometer coupled to a DH-2000-BAL dual-mode light source (Ocean Optics) with a single 1 cm semimicro quartz cuvette (Starna). The light source and spectrometer were optically coupled to the CUV sample (Ocean Optics) holder using 2 m fiberoptics (200 μm) and the parameters for acquisition were 0.369 nm interval and 1000 scans averaged with an integration time/scan 1.08 ms (total acquisition time ~ 1 s). The complexation of Am^3+ with the ligands was monitored in the 495–525 nm spectral region, looking at the ^7F0′ → ^5L6′ transition[23],[35]. For Cm^3+, ligand complexation was monitored in the 365–410 nm spectral region, looking at the ^8S7/2 → ^2Ji (i = {15}, {13,9}, {11,17}) manifold transitions[24],[25],[36]. Changes in aqueous p[H^+] were monitored throughout each titration step using a Gran-calibrated Orion Ross Semi-micro glass electrode. Baseline correction was applied to all datasets and was typically a simple linear subtraction. However, in the case of the ^248Cm/H4pypa-peg spectra, the tail end of the ligand absorption overlapped the hypersensitive Cm peaks. In this case the background correction was applied using a 5th-order empirical polynomial. Finally, the spectroscopic data was analyzed using the HypSpec software package[33],[37]. Full details of the titrand and titrant solutions for each titration are included in the Supplemental Information.
To further validate the competitive solvent extraction methodology the complexation of Am^3+ with H4octapa and Cm^3+ with H4pypa-peg was studied spectrophotometrically. These titrations monitored the ligand-induced changes on the optical absorption spectra of free Am^3+ at λmax = 503.0 nm, (Fig. 8A) and Cm^3+ at λmax = 375.0, 380.6, 396.5 nm, (Fig. 8C). The presence of both ligands induced new red-shifted absorption signatures in each monitored titration. […] Excellent agreement between the solvent extraction and spectrophotometry was attained for the β101 values for the formation of [Am(octapa)]^− albeit the uncertainty associated with a constant measured using competitive liquid–liquid distribution is rather large and points out the shortcomings of this method. A variance between two analytical methods is larger for [Cm(pypa-peg)]^− possibly due to free ligand absorption interferences.
2. Spectrophotometric titration parameters […]
H4octapa, at p[H+] ≈ 5.0 – 6.0. […]
Am3+: The titrand solution consisting of 0.806 mL of 0.791 mM Am(ClO4)3 at p[H+] = 1.41 was
blended with 0.787 mL of titrant solution containing 0.801 mM Am3+ and 15.09 mM
H4pypa-peg at p[H+] ≈ 5 – 6. […]

[3] = I = 2.0 M (Na+/H+)ClO4 at 20.0 °C (spectrophotometric titration)

SMILES | logβ101 (ML), Nd [1] | logβ111 (MHL), Nd [1] | logK111, Dy [1] | logK111, Eu [1] | logK111, Ho [1] | logK111, La [1] | logK111, Lu [1] | logK111, Nd [1] | logK111, Tb [1] | logβ101 (ML), Dy [1] | logβ101 (ML), Eu [1] | logβ101 (ML), Ho [1] | logβ101 (ML), La [1] | logβ101 (ML), Lu [1] | logβ101 (ML), Tb [1] | logβ111 (MHL), Dy [1] | logβ111 (MHL), Eu [1] | logβ111 (MHL), Ho [1] | logβ111 (MHL), La [1] | logβ111 (MHL), Lu [1] | other results
O=C(O)CN(Cc1cc(-c2cn(CCOCCOCCO)nn2)cc(CN(CC(=O)O)Cc2cccc(C(=O)O)n2)n1)Cc1cccc(C(=O)O)n1 [H4pypa-peg, 6,6'-((((4-(1-(2-(2-(2-hydroxyethoxy)ethoxy)ethyl)-1H-1,2,3-triazol-4-yl)pyridine-2,6-diyl)bis–(methylene))bis–((carboxymethyl)azanediyl))bis–(methylene)) dipicolinic acid] | 18.20 (2) | 20.43 (2) | 1.97 (2) | 1.96 (1) | 1.80 (4) | 2.32 (1) | 1.87 (5) | 2.22 (2) | 2.02 (2) | 20.05 (1) | 18.91 (1) | 20.50 (4) | 17.86 (1) | 20.72 (5) | 19.75 (2) | 22.03 (2) | 20.87 (1) | 22.31 (4) | 20.18 (1) | 22.60 (5) | logβ111 (MHL), Tb [1]: 21.77 (2)
O=C(O)CN(CCN(CC(=O)O)CC(=O)O)CCN(CC(=O)O)CC(=O)O [H5dtpa, diethylenetriamine-N,N,N',N'',N''-pentaacetic acid] |  |  |  |  |  |  |  |  |  |  |  |  |  |  |  |  |  |  |  |  | logβ101 (ML), Am3+ [2, 3]: 21.45(1); logβ111 (MHL), Am3+ [2, 3]: 22.62(2)
O=C(O)CN(CCN(CCN(CC(=O)O)CC(=O)O)CC(=O)O)CCN(CC(=O)O)CC(=O)O [H6ttha, triethylenetetraamine-N,N,N',N'',N''',N'''-hexaacetic acid] | 21.78(2) | 25.42(2) |  |  |  |  |  |  |  |  |  |  |  |  |  |  |  |  |  |  | logβ101 (ML), Am3+ [2, 3]: 23.25(3); logβ111 (MHL), Am3+ [2, 3]: 27.02(3); logβ121 (MH2L), Am3+ [2, 3]: 28.84(2); logβ121 (MH2L), Nd3+ ([1]; determined using potentiometry, I = 2.0 M (Na+/H+)ClO4 at 20.0 °C): 27.74(3)
O=C(O)CN(CCN(CC(=O)O)Cc1cccc(C(=O)O)n1)Cc1cccc(C(=O)O)n1 [H4octapa, 6,6′-((ethane-1,2-diylbis–((carboxymethyl)azanediyl))bis–(methylene))dipicolinic acid] | 18.19 (1) | 19.92 (2) – | 1.28 (2) | 1.13 (4) | 0.53 (2) | 1.53 (4) | 1.69 (4) | 1.73 (2) – | 1.04 (7) | 18.48 (2) | 18.49 (2) | 18.57 (2) | 17.77 (2) | 17.97 (3) | 18.55 (2) | 19.76 (1) | 19.62 (4) | 19.10 (1) | 19.30 (4) | 19.66 (4) | logβ101 (ML), Am3+ ([2]; spectrophotometrically measured, I = 2.0 M (Na+/H+)NO3, T = 25 ± 1 °C, ±3σ): 19.28 (1); logβ111 (MHL), Tb [1]: 19.59 (7)
